According to ChEMBL document CHEMBL1201862, “PubChem BioAssay data set” (2004):
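Grown in 96-well plates, cells were treated for 48 hours with each compound at five concentrations. Insufficient inhibition: endpoint recorded as highest concentration tested. At the GI50, growth is halved.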 The source made the active and inactive calls. No stated cut-off is given here; in the data, active = GI50 up to about 1.1 µM and inactive = higher.

Tests used:
Assay in all cases: NCI-60 cell line screen, 48 h
786-0 = tested on: 786-0
A498 = tested on: A498
ACHN = tested on: ACHN
HCC 2998 = tested on: HCC 2998
HCT-116 = tested on: HCT-116
HOP-62 = tested on: HOP-62
KM12 = tested on: KM12
LOX IMVI = tested on: LOX IMVI
MDA-MB-435 = tested on: MDA-MB-435
MDA-N = tested on: MDA-N
NCI/ADR-RES = tested on: NCI/ADR-RES
OVCAR-3 = tested on: OVCAR-3
OVCAR-5 = tested on: OVCAR-5
SF-295 = tested on: SF-295
SK-MEL-28 = tested on: SK-MEL-28
SK-OV-3 = tested on: SK-OV-3
TK-10 = tested on: TK-10
UACC-62 = tested on: UACC-62
HOP-92 = tested on: HOP-92
M14 = tested on: M14

Compound: Cn1ncc2c(NCc3ccccc3)ncnc21
- GI50 (786-0): > 100 µM (inactive)
- GI50 (A498): > 100 µM (inactive)
- GI50 (ACHN): > 100 µM (inactive)
- GI50 (HCC 2998): > 100 µM (inactive)
- GI50 (HCT-116): > 100 µM (inactive)
- GI50 (HOP-62): > 100 µM (inactive)
- GI50 (KM12): > 100 µM (inactive)
- GI50 (LOX IMVI): > 100 µM (inactive)
- GI50 (MDA-MB-435): > 100 µM (inactive)
- GI50 (MDA-N): > 100 µM (inactive)
- GI50 (NCI/ADR-RES): > 100 µM (inactive)
- GI50 (OVCAR-3): > 100 µM (inactive)
- GI50 (OVCAR-5): > 100 µM (inactive)
- GI50 (SF-295): > 100 µM (inactive)
- GI50 (SK-MEL-28): > 100 µM (inactive)
- GI50 (SK-OV-3): > 100 µM (inactive)
- GI50 (TK-10): > 100 µM (inactive)
- GI50 (UACC-62): > 100 µM (inactive)

Compound: COc1cc(C=O)cc(/C=N/N=C/c2ccccc2O)c1O
- GI50 (786-0): 19.2 µM (inactive)
- GI50 (A498): > 100 µM (inactive)
- GI50 (ACHN): 16.7 µM (inactive)
- GI50 (HCT-116): 26.1 µM (inactive)
- GI50 (HOP-62): 30.7 µM (inactive)
- GI50 (HOP-92): 3.22 µM (inactive)
- GI50 (KM12): 76.9 µM (inactive)
- GI50 (LOX IMVI): 21.7 µM (inactive)
- GI50 (M14): 15.6 µM (inactive)
- GI50 (MDA-MB-435): 23.9 µM (inactive)
- GI50 (MDA-N): 25 µM (inactive)
- GI50 (NCI/ADR-RES): 36 µM (inactive)
- GI50 (OVCAR-3): 25.5 µM (inactive)
- GI50 (SF-295): 2.7 µM (inactive)
- GI50 (SK-MEL-28): 14.7 µM (inactive)
- GI50 (SK-OV-3): 12.7 µM (inactive)
- GI50 (TK-10): 82.6 µM (inactive)
- GI50 (UACC-62): 28.4 µM (inactive)

Compound: O=c1[nH]c(=O)n(COCCO)c2ccc(Br)cc12
- GI50 (786-0): > 100 µM (inactive)
- GI50 (A498): > 100 µM (inactive)
- GI50 (ACHN): > 100 µM (inactive)
- GI50 (HCT-116): > 100 µM (inactive)
- GI50 (HOP-92): > 100 µM (inactive)
- GI50 (KM12): > 100 µM (inactive)
- GI50 (LOX IMVI): > 100 µM (inactive)
- GI50 (M14): > 100 µM (inactive)
- GI50 (MDA-MB-435): > 100 µM (inactive)
- GI50 (MDA-N): > 100 µM (inactive)
- GI50 (NCI/ADR-RES): > 100 µM (inactive)
- GI50 (OVCAR-3): > 100 µM (inactive)
- GI50 (OVCAR-5): > 100 µM (inactive)
- GI50 (SF-295): > 100 µM (inactive)
- GI50 (SK-MEL-28): > 100 µM (inactive)
- GI50 (SK-OV-3): > 100 µM (inactive)
- GI50 (TK-10): > 100 µM (inactive)
- GI50 (UACC-62): > 100 µM (inactive)

Compound: CCOC(=O)C(C(=S)SC)c1nn2c(=O)cc(C)nc2s1 (configuration not stated)
- GI50 (786-0): 20.3 µM (inactive)
- GI50 (ACHN): 20.2 µM (inactive)
- GI50 (HCC 2998): 25.5 µM (inactive)
- GI50 (HCT-116): 18.6 µM (inactive)
- GI50 (HOP-62): 22.4 µM (inactive)
- GI50 (HOP-92): 21.7 µM (inactive)
- GI50 (KM12): 26.2 µM (inactive)
- GI50 (LOX IMVI): 15.9 µM (inactive)
- GI50 (M14): 15.6 µM (inactive)
- GI50 (MDA-MB-435): 18.2 µM (inactive)
- GI50 (MDA-N): 15.8 µM (inactive)
- GI50 (NCI/ADR-RES): 24.3 µM (inactive)
- GI50 (OVCAR-3): 20.2 µM (inactive)
- GI50 (OVCAR-5): 20.8 µM (inactive)
- GI50 (SF-295): 20.3 µM (inactive)
- GI50 (SK-MEL-28): 18.8 µM (inactive)
- GI50 (SK-OV-3): 22.9 µM (inactive)
- GI50 (TK-10): 35.1 µM (inactive)
- GI50 (UACC-62): 20.4 µM (inactive)

Compound: COc1cc2c3cc1Oc1c(OC)c(OC)cc4c1C(Cc1ccc(O)c(c1)Oc1ccc(cc1)CC3N(C)CC2)CN(C)C4 (configuration not stated)
- GI50 (786-0): 10.8 µM (inactive)
- GI50 (A498): 16.9 µM (inactive)
- GI50 (ACHN): 27.4 µM (inactive)
- GI50 (HCC 2998): 3.44 µM (inactive)
- GI50 (HCT-116): 6.05 µM (inactive)
- GI50 (HOP-62): 20 µM (inactive)
- GI50 (HOP-92): 16 µM (inactive)
- GI50 (KM12): 13.2 µM (inactive)
- GI50 (M14): 4.1 µM (inactive)
- GI50 (MDA-MB-435): 11.5 µM (inactive)
- GI50 (MDA-N): 12.2 µM (inactive)
- GI50 (NCI/ADR-RES): 19.3 µM (inactive)
- GI50 (OVCAR-3): 15 µM (inactive)
- GI50 (OVCAR-5): 21.5 µM (inactive)
- GI50 (SF-295): 17.9 µM (inactive)
- GI50 (SK-MEL-28): 16.8 µM (inactive)
- GI50 (SK-OV-3): 23.4 µM (inactive)
- GI50 (TK-10): 16.1 µM (inactive)
- GI50 (UACC-62): 18.1 µM (inactive)

Compound: COC(=O)c1cc(C)ccc1C1CN=NC12Cc1c(C)cc(C)cc1C2=O (configuration not stated)
- GI50 (786-0): 25.7 µM (inactive)
- GI50 (ACHN): 40.5 µM (inactive)
- GI50 (HCC 2998): 26.5 µM (inactive)
- GI50 (HCT-116): 14.7 µM (inactive)
- GI50 (HOP-62): 29 µM (inactive)
- GI50 (HOP-92): 13.8 µM (inactive)
- GI50 (KM12): 16.5 µM (inactive)
- GI50 (LOX IMVI): 15.1 µM (inactive)
- GI50 (M14): 17 µM (inactive)
- GI50 (MDA-MB-435): 16.3 µM (inactive)
- GI50 (MDA-N): 14.4 µM (inactive)
- GI50 (NCI/ADR-RES): 17.7 µM (inactive)
- GI50 (OVCAR-3): 14.9 µM (inactive)
- GI50 (OVCAR-5): 29.4 µM (inactive)
- GI50 (SF-295): 23.2 µM (inactive)
- GI50 (SK-MEL-28): 51.1 µM (inactive)
- GI50 (SK-OV-3): 17 µM (inactive)
- GI50 (TK-10): 34.1 µM (inactive)
- GI50 (UACC-62): 16.9 µM (inactive)

Compound: Cc1nc2ccc(S(=O)(=O)Nc3ccccc3Cl)cc2c(=O)n1NC(=O)CNc1ccccc1Cl
- GI50 (786-0): > 100 µM (inactive)
- GI50 (ACHN): > 100 µM (inactive)
- GI50 (HCC 2998): > 100 µM (inactive)
- GI50 (HCT-116): > 100 µM (inactive)
- GI50 (HOP-62): > 100 µM (inactive)
- GI50 (HOP-92): > 100 µM (inactive)
- GI50 (KM12): > 100 µM (inactive)
- GI50 (LOX IMVI): > 100 µM (inactive)
- GI50 (M14): > 100 µM (inactive)
- GI50 (MDA-MB-435): > 100 µM (inactive)
- GI50 (MDA-N): > 100 µM (inactive)
- GI50 (NCI/ADR-RES): > 100 µM (inactive)
- GI50 (OVCAR-3): > 100 µM (inactive)
- GI50 (OVCAR-5): > 100 µM (inactive)
- GI50 (SF-295): > 100 µM (inactive)
- GI50 (SK-MEL-28): > 100 µM (inactive)
- GI50 (SK-OV-3): > 100 µM (inactive)
- GI50 (TK-10): > 100 µM (inactive)
- GI50 (UACC-62): > 100 µM (inactive)

Compound: Cc1ccc(S(=O)(=O)[N-]C2C(=O)c3ccccc3C(=O)C2[n+]2cccc(C(N)=O)c2)cc1 (configuration not stated)
- GI50 (786-0): 30.8 µM (inactive)
- GI50 (ACHN): > 100 µM (inactive)
- GI50 (HCC 2998): 38.5 µM (inactive)
- GI50 (HCT-116): 17.4 µM (inactive)
- GI50 (HOP-62): > 100 µM (inactive)
- GI50 (HOP-92): > 100 µM (inactive)
- GI50 (KM12): > 100 µM (inactive)
- GI50 (LOX IMVI): 30.7 µM (inactive)
- GI50 (M14): > 100 µM (inactive)
- GI50 (MDA-MB-435): > 100 µM (inactive)
- GI50 (MDA-N): 34.8 µM (inactive)
- GI50 (NCI/ADR-RES): > 100 µM (inactive)
- GI50 (OVCAR-3): > 100 µM (inactive)
- GI50 (OVCAR-5): > 100 µM (inactive)
- GI50 (SF-295): > 100 µM (inactive)
- GI50 (SK-MEL-28): > 100 µM (inactive)
- GI50 (SK-OV-3): > 100 µM (inactive)
- GI50 (TK-10): 33.9 µM (inactive)
- GI50 (UACC-62): > 100 µM (inactive)

Compound: Cc1nn(-c2ccccc2)c2nc3ccc(Cl)cc3c(-c3ccccc3)c12
- GI50 (786-0): > 100 µM (inactive)
- GI50 (ACHN): > 100 µM (inactive)
- GI50 (HCC 2998): > 100 µM (inactive)
- GI50 (HCT-116): > 100 µM (inactive)
- GI50 (HOP-62): > 100 µM (inactive)
- GI50 (HOP-92): > 100 µM (inactive)
- GI50 (KM12): > 100 µM (inactive)
- GI50 (LOX IMVI): > 100 µM (inactive)
- GI50 (M14): > 100 µM (inactive)
- GI50 (MDA-MB-435): > 100 µM (inactive)
- GI50 (MDA-N): > 100 µM (inactive)
- GI50 (NCI/ADR-RES): > 100 µM (inactive)
- GI50 (OVCAR-3): > 100 µM (inactive)
- GI50 (OVCAR-5): > 100 µM (inactive)
- GI50 (SF-295): > 100 µM (inactive)
- GI50 (SK-MEL-28): > 100 µM (inactive)
- GI50 (SK-OV-3): > 100 µM (inactive)
- GI50 (TK-10): > 100 µM (inactive)
- GI50 (UACC-62): > 100 µM (inactive)

Compound: COc1cc([C@@H]2c3cc4c(cc3[C@@H](Nc3ccc(Cl)cc3C(=O)c3ccccc3)[C@H]3COC(=O)[C@H]23)OCO4)cc(OC)c1OC
- GI50 (786-0): 0.394 µM (active)
- GI50 (A498): 0.195 µM (active)
- GI50 (ACHN): 0.592 µM (active)
- GI50 (HCC 2998): 0.205 µM (active)
- GI50 (HCT-116): 0.291 µM (active)
- GI50 (HOP-62): 0.64 µM (active)
- GI50 (KM12): 0.258 µM (active)
- GI50 (LOX IMVI): 0.303 µM (active)
- GI50 (M14): 0.414 µM (active)
- GI50 (MDA-MB-435): 0.242 µM (active)
- GI50 (MDA-N): 0.307 µM (active)
- GI50 (NCI/ADR-RES): 0.425 µM (active)
- GI50 (OVCAR-3): 0.324 µM (active)
- GI50 (OVCAR-5): 0.598 µM (active)
- GI50 (SF-295): 0.299 µM (active)
- GI50 (SK-MEL-28): 0.372 µM (active)
- GI50 (SK-OV-3): 0.641 µM (active)
- GI50 (TK-10): > 100 µM (inactive)
- GI50 (UACC-62): 0.401 µM (active)
